Assay results published in patent publication US20230391745A1, “SMALL MOLECULE DEGRADERS OF THE BROMODOMAIN AND PHD FINGER TRANSCRIPTION FACTOR” (Regents of the University of Minnesota, priority 2022, published 2023).
Read-outs that look alike come from different tables or passages of the source.

Experiments:
BRD9 bromodomain = target: T1, BRD9 bromodomain (Homo sapiens, UniProt Q9H8M2); assay: AlphaScreen assay with BRD9 bromodomain and biotinylated histone H4 KAc5,8,12,16 peptide; format: binding
T1 construct: His; purchased Reaction Biology RD-11-214
T1 sequence (Q9H8M2 136-240 limits assumed): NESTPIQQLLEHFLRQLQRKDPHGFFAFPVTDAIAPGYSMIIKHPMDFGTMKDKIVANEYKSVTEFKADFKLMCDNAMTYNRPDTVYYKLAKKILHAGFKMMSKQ

CECR2 bromodomain = target: T2, CECR2 bromodomain (Homo sapiens, UniProt Q9BXF3); assay: AlphaScreen assay with CECR2 bromodomain and biotinylated histone H4 KAc5,8,12,16 peptide; format: binding
T2 construct: His; purchased Reaction Biology RD-11-210

[1] = target: T3, Nluc-BPTF-BD fusion construct (Homo sapiens, UniProt Q12830+Q96SW2); assay: In-cell NanoBRET CRBN ternary complex assay with Nluc-BPTF-BD; format: cell-based; settings: for BRET ratio, fold increase over DMSO (in-cell ternary complex formation): 1 μM degrader, C-terminal Nluc-BPTF-BD fusion, HEK293T cells; for Ternary complex formation with C-terminal Nluc/BPTF-BD fusion construct / Ternary complex formation with N-terminal Nluc/BPTF-BD fusion construct: 1 μM for 2 h, HEK293T cells pre-treated with MG-132
T3 construct: form ternary complexes with nanoluciferase-fused BPTF bromodomain and full-length BRD9 constructs; expressed in transfected cells; host or cells: HEK293T
Protocol: In-cell NanoBRET assay. NanoBRET experiments were carried out using the NanoBRET CRBN Ternary Complex Starter Kit (Cat #ND2720) according to the manufacturer's protocol (Promega NanoBRET™ CRBN Ternary Complex Assay TM615).^38 All assays were run in 384-well format. HEK293T cells were transfected to a 1:100 donor:acceptor (Nluc:Halotag vectors) ratio for both BPTF-BD and BRD9-FL vectors (see supporting information for the design of plasmids). Cells were re-plated, treated with the HaloTag 618 Ligand and treated with compounds as described in the manufacturer's procedure.
Cell culture. HEK293T cells were grown in a humidified 5% CO2 environment at 37° C. Cells were cultured in DMEM media (high-glucose, Gibco Cat. #11965-092) supplemented with 10% fetal-bovine serum (Cellgro Cat. #QB-110-001-101), Penicillin-Streptomycin (50 U/mL penicillin, 50 μg/mL streptomycin, Cellgro Cat. #15140-122). The cells were passaged to a 1:20 dilution by decanting suspended cells and dissociating adherent cells from cell culture flasks in 0.25% trypsin/EDTA (Gibco, Cat. #25200056) after 1 min incubation.
In-cell ternary complex formation and degradation of BPTF-BD via NanoBRET. After establishing in vitro ternary complex formation, a NanoBRET ternary complex assay was optimized to rank-order degraders in cells (FIG. 4A). This assay also serves as an indirect indicator of cellular permeability, which is often a major challenge for heterobifunctional degraders. Both N- and C-terminal fusions of Nanoluciferase (Nluc) and BPTF-BD with 11-amino acid linkers were designed. The vectors were transfected into HEK293T cells and compounds 4 and 5 were dosed at 1 μM for 2 h in cells pre-treated with the proteosome inhibitor MG-132. […] The C-terminal Nluc-BPTF-BD fusion construct was therefore used for subsequent experiments. Degraders were tested for ternary complex formation at 1 μM (FIG. 4B).

[2] = target: T4, GST-PCAF and His-tagged CRBN-DDB1 (Homo sapiens, UniProt Q92831+Q96SW2); assay: In vitro AlphaScreen ternary complex assay, PCAF; format: binding; settings: His-CRBN-DDB1, varying degrader concentrations
T4 construct: GST-tagged bromodomains (BPTF, BRD9, CECR2 and PCAF) and His-tagged CRBN; purchased Reactive Biology Corp RD-11-259
Protocol: (§1) General procedure for in vitro ternary complex assay. His-tagged CRBN-DDB1 protein was prepared following the procedure reported by Matyskiela et al. GST-BPTF was purchased from BPS Biosciences (cat #31134), while GST-BRD9, GST-CECR2, and GST-PCAF were purchased from Reactive Biology Corp (cat #RD-11-187, cat #RD-11-194, and cat #RD-11-259 respectively). All reagents were diluted in assay buffer comprising 25 mM HEPES, pH 7.4, 100 mM NaCl, 0.1% BSA, and 0.05% tween20. An ECHO 650 (Labcyte Inc.) acoustic dispenser was used to generate a 10-point dilution curve from DMSO stocks of the degraders directly into a 384-well OptiPlate (PerkinElmer, Cat. #6007290) giving a final DMSO concentration of 0.3%. AlphaScreen glutathione coated donor and nickel chelate acceptor beads were purchased from PerkinElmer (Cat. #6765300 and 6760141 respectively).
(§2) Briefly, to a 384-well OptiPlate containing 5× degrader in triplicate was added 5 μL of a 5× solution of His-CRBN-DDB1 and GST-tagged bromodomain and then incubated at rt for 1 h. After incubation, 10 μL nickel chelate acceptor (20 μL/mL final concentration) and 10 μL glutathione donor beads (20 μL/mL final concentration) were added. The plate was sealed and mixed on a MixMate (eppendorf) for 1 h at rt and then luminescence detection was collected on an Envision plate reader (PerkinElmer).
(§3) In vitro ternary complex formation via AlphaScreen. The stability of the ternary complex is critical for degradation by heterobifunctional molecules. A ternary complex formation in vitro using an AlphaScreen-based assay (FIG. 3A) was therefore studied. In this experiment, anti-GST donor beads and nickel acceptor beads were paired with GST-tagged bromodomains (BPTF, BRD9, CECR2 and PCAF) and His-tagged CRBN. The AlphaScreen signal was measured at varying degrader concentrations and the amplitude of the maximum point on the curve was used as an indicator of ternary complex stability.

BPTF bromodomain = target: T5, BPTF bromodomain (Homo sapiens, UniProt Q12830); assay: AlphaScreen assay with BPTF bromodomain and biotinylated histone H4 KAc5,8,12,16 peptide; format: binding; settings: average of two technical replicates with N = 3 unless otherwise indicated, read-out: BPTF BD IC50
T5 construct: His9-tagged BPTF bromodomain was expressed and purified as described previously; His9; made in house
Protocol: General procedure for AlphaScreen assay. His9-tagged BPTF bromodomain was expressed and purified as described previously. […] The AlphaScreen assay procedures were adapted from the manufacturers protocol (PerkinElmer, USA). […] The biotinylated Histone H4 KAc5,8,12,16 peptide was purchased from EpiCypher (Cat. #12-0034), with the sequence:
Ac-SGRGK(Ac)GGK(Ac)GLGK(Ac)GGAK(Ac)RHRKVLR-Peg(Biot).
All reagents were diluted in the assay buffer (50 mM HEPES-Na^+ (ChemImpex), 100 mM NaCl (SigmaAldrich), 0.05% CHAPS (RPI), 0.1% BSA (SigmaAldrich), pH 7.4).
3-fold serial dilutions were prepared with varying concentrations of the compounds and a fixed protein concentration, keeping the final DMSO concentration at 0.25%. […] 5 μL of the biotinylated peptide solution was then added to the wells. 10 μL of pre-mixed nickel chelate acceptor beads and streptavidin donor beads were added to each well under low light conditions (<100 lux), to a final concentration of 20 μg/mL. The plate was sealed and incubated for 30 minutes in the dark. It was then read in AlphaScreen mode (excitation time=100 ms, integration time=300 ms, output: counts/s) using a Tecan Spark plate reader. Each compound was run in two technical replicates and the data was normalized against 0 μM inhibitor signal to obtain the % normalized AlphaScreen signal. IC50 values were calculated in GraphPad Prism 9 using a sigmoidal 4-parameter logistic (4PL) curve fit.
To validate our chosen exit vectors, an AlphaScreen assay was used to measure binding affinity of our degraders with the BPTF bromodomain.

[3] = target: T6, GST-CECR2 and His-tagged CRBN-DDB1 (Homo sapiens, UniProt Q96SW2+Q9BXF3); assay: In vitro AlphaScreen ternary complex assay, CECR2; format: binding; settings: GST-CECR2, His-CRBN-DDB1, varying degrader concentrations
T6 construct: GST-tagged bromodomains (BPTF, BRD9, CECR2 and PCAF) and His-tagged CRBN; purchased Reactive Biology Corp RD-11-194
Protocol: as §1, §2, §3

[4] = target: T7, GST-BRD9 and His-tagged CRBN-DDB1 (Homo sapiens, UniProt Q96SW2+Q9H8M2); assay: In vitro AlphaScreen ternary complex assay, BRD9; format: binding; settings: GST-BRD9, His-CRBN-DDB1, varying degrader concentrations
T7 construct: GST-tagged bromodomains (BPTF, BRD9, CECR2 and PCAF) and His-tagged CRBN; purchased Reactive Biology Corp RD-11-187
Protocol: as §1, with “AlphaScreen glutathione coated donor and nickel chelate acceptor beads were purchased from PerkinElmer (Cat. #6765300 and 6760141 respectively).” left out
Briefly, to a 384-well OptiPlate containing 5× degrader in triplicate was added 5 μL of a 5× solution of His-CRBN-DDB1 and GST-tagged bromodomain and then incubated at rt for 1 h. […] The plate was sealed and mixed on a MixMate (eppendorf) for 1 h at rt and then luminescence detection was collected on an Envision plate reader (PerkinElmer).
In vitro ternary complex formation via AlphaScreen. […] The AlphaScreen signal was measured at varying degrader concentrations and the amplitude of the maximum point on the curve was used as an indicator of ternary complex stability.

[5] = target: T8, Nluc-BRD9-FL fusion construct (Homo sapiens, UniProt Q96SW2+Q9H8M2); assay: In-cell NanoBRET CRBN ternary complex assay with full-length BRD9; settings: HEK293T cells
Description: (§4) In-cell ternary complex formation and degradation of full-length BRD9 via NanoBRET. […] Degradation of the Nluc-BRD9-FL construct was monitored under similar conditions as our BPTF study.

[6] = target: T8, Nluc-BRD9-FL fusion construct; assay: Degradation of Nluc-BRD9-FL construct by total donor luminescence; settings: similar conditions as BPTF study (1 μM, 6 h), HEK293T cells
Description: as §4

[7] = AlphaScreen, average of two technical replicates with N = 2 unless otherwise indicated, read-out: BRD9 BD IC50
[8] = AlphaScreen, average of two technical replicates with N = 2 unless otherwise indicated, read-out: CECR2 BD IC50

T4 sequence (Q92831 723-827 limits assumed): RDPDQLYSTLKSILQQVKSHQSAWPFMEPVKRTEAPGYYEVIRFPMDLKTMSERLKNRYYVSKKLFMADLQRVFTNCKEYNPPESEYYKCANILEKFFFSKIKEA
T4 sequence (Q96SW2 40-442 limits assumed): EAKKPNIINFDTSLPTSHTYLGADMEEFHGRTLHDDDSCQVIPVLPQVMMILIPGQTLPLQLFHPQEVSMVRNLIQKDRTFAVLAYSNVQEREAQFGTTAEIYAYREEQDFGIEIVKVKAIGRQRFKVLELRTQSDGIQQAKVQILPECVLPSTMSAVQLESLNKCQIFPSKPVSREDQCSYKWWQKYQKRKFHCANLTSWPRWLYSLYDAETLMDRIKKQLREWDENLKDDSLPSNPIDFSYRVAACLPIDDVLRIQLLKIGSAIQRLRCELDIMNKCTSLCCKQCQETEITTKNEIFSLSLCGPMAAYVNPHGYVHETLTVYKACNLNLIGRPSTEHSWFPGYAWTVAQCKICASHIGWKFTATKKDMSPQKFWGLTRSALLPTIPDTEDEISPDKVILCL
T4 sequence (Q16531 whole entry partner): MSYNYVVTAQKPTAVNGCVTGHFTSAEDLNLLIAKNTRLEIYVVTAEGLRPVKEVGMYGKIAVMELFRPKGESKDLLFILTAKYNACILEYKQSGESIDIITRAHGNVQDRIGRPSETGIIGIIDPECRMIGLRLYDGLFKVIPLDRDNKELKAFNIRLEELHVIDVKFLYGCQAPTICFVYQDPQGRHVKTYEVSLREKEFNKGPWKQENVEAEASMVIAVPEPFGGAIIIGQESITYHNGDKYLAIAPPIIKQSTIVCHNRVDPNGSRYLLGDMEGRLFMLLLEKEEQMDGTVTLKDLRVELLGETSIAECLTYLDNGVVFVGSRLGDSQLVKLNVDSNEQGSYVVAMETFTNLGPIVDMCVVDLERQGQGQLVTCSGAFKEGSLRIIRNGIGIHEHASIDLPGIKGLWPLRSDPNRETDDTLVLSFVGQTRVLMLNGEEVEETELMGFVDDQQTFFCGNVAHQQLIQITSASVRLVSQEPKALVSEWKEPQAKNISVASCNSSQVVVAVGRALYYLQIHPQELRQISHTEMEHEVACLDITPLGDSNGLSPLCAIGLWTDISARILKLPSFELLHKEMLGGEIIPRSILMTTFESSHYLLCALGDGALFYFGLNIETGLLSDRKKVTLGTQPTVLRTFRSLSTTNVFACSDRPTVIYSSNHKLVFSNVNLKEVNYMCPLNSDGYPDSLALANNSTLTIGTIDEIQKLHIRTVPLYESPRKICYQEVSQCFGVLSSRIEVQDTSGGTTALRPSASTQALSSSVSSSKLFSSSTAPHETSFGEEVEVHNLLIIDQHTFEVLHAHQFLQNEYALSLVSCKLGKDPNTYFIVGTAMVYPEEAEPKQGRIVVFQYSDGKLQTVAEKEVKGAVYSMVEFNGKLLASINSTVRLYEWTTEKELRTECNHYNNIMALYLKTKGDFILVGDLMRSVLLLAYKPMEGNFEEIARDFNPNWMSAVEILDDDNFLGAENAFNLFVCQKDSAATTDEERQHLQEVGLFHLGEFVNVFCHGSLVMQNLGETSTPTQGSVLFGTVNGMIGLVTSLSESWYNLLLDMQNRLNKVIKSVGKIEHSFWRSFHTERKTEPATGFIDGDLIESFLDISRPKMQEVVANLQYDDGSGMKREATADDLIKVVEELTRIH
T8 sequence (Q9H8M2 whole entry, the tested form may be a part): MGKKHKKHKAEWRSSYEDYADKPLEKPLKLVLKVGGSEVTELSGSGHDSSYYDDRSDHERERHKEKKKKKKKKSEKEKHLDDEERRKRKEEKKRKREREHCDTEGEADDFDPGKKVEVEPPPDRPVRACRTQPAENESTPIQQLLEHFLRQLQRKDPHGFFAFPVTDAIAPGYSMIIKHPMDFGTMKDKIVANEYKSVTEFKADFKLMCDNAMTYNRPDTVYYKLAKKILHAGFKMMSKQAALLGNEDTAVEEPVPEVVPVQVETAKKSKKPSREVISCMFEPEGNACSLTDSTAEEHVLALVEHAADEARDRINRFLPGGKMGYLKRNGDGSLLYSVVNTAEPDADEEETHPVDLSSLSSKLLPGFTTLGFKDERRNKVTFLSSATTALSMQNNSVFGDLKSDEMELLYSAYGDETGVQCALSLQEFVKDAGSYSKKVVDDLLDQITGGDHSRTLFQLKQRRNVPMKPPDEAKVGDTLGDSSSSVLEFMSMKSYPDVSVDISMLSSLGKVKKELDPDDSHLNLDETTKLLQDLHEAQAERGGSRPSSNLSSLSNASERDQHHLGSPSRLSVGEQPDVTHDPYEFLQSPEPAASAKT
T8 sequence (Q96SW2 whole entry, the tested form may be a part): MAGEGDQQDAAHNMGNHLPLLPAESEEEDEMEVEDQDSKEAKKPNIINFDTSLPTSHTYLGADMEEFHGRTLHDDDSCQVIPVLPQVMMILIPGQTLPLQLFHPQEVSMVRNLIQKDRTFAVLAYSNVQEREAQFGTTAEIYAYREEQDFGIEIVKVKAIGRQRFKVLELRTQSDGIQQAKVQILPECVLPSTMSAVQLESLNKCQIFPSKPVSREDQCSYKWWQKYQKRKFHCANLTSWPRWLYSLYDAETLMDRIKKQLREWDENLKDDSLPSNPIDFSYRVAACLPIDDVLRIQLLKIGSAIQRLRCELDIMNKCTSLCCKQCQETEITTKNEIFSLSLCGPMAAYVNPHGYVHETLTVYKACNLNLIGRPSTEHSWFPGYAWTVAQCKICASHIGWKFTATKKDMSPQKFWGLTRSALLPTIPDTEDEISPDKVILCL
T8 sequence (Q16531 whole entry partner, the tested form may be a part): as the sequence (Q16531 whole entry partner) above
T6 sequence (Q9BXF3 434-538 limits assumed): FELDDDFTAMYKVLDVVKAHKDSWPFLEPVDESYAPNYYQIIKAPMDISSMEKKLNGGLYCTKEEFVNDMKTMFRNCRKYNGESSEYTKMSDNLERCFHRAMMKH
T6 sequence (Q96SW2 40-442 limits assumed): as the sequence (Q96SW2 40-442 limits assumed) above
T6 sequence (Q16531 whole entry partner): as the sequence (Q16531 whole entry partner) above
T2 sequence (Q9BXF3 434-538 limits assumed): as the sequence (Q9BXF3 434-538 limits assumed) above
T3 sequence (Q16531 whole entry, the tested form may be a part): as the sequence (Q16531 whole entry partner) above
T3 sequence (Q96SW2 whole entry, the tested form may be a part): as the sequence (Q96SW2 whole entry, the tested form may be a part) above
T7 sequence (Q96SW2 40-442 limits assumed, one chain of several): as the sequence (Q96SW2 40-442 limits assumed) above
T7 sequence (Q16531 whole entry partner, one chain of several): as the sequence (Q16531 whole entry partner) above

Row | SMILES | IC50 (BRD9 bromodomain) [µM] | IC50 (CECR2 bromodomain) [µM] | IC50 (BRD9 bromodomain; [7]) [µM] | IC50 (CECR2 bromodomain; [8]) [µM] | BRET ratio, fold increase over DMSO (in-cell ternary complex formation) [1] [fold] | Ternary complex formation with PCAF (AlphaScreen signal amplitude) [2] | IC50 (BPTF bromodomain) [µM] | Ternary complex formation with CECR2 (AlphaScreen signal amplitude) [3] | Ternary complex formation with BRD9 (AlphaScreen signal amplitude) [4] | Ternary complex formation with C-terminal Nluc/BPTF-BD fusion construct [1] | Ternary complex formation with N-terminal Nluc/BPTF-BD fusion construct [1] | BRET ratio, fold over DMSO control (in-cell ternary complex formation) [5] [fold] | Degradation of the Nluc-BRD9-FL construct [6]
1 | Cn1ncc(Nc2ccc3c(c2)CCNC3)c(Cl)c1=O [Compound 1] | 0.556 | 1.67 | – | – | – | – | – | – | – | – | – | – | –
2 | Cn1ncc(Nc2ccc3c(c2)CNCC3)c(Cl)c1=O [Compound 2] | – | – | 0.3 | 1.3 | – | – | – | – | – | – | – | – | –
3 | Cn1ncc(Nc2ccc3c(c2)CCN(CCCCCCNC(=O)COc2cccc4c2C(=O)N(C2CCC(=O)NC2=O)C4=O)C3)c(Cl)c1=O (stereo not drawn) [Compound 3] | – | – | 0.021 | 0.053 | 3.5 | drop in signal | 0.024 ± 0.009 | drop in signal | drop in signal | – | – | – | –
4 | Cn1ncc(Nc2ccc3c(c2)CN(CCCCCCNC(=O)COc2cccc4c2C(=O)N(C2CCC(=O)NC2=O)C4=O)CC3)c(Cl)c1=O (stereo not drawn) [Compound 4, N-(6-(7-((5-chloro-1-methyl-6-oxo-1,6-dihydropyridazin-4-yl)amino)-3,4-dihydroisoquinolin-2(1H)-yl)hexyl)-2-((2-(2,6-dioxopiperidin-3-yl)-1,3-dioxoisoindolin-4-yl)oxy)acetamide] | – | – | 0.098 | 0.485 | 3.2 | promiscuous | 0.158 ± 0.055 | promiscuous | promiscuous | showed ternary complex formation | did not | ~2 | caused degradation of full-length BRD9, comparable to the dBRD9 control
5 | Cn1ncc(Nc2ccc3c(c2)CCN(CCOCCOCCNC(=O)COc2cccc4c2C(=O)N(C2CCC(=O)NC2=O)C4=O)C3)c(Cl)c1=O (stereo not drawn) [Compound 5, N-(2-(2-(2-(6-((5-chloro-1-methyl-6-oxo-1,6-dihydropyridazin-4-yl)amino)-3,4-dihydroisoquinolin-2(1H)-yl)ethoxy)ethoxy)ethyl)-2-((2-(2,6-dioxopiperidin-3-yl)-1,3-dioxoisoindolin-4-yl)oxy)acetamide] | – | – | 0.063 | 0.225 | 2.3 | less stable ternary complexes | 0.07 ± 0.023 | less stable ternary complexes | – | showed ternary complex formation | did not | – | caused degradation of full-length BRD9, comparable to the dBRD9 control
6 | Cn1ncc(Nc2ccc3c(c2)CN(CCOCCOCCNC(=O)COc2cccc4c2C(=O)N(C2CCC(=O)NC2=O)C4=O)CC3)c(Cl)c1=O (stereo not drawn) [Compound 6, N-(2-(2-(2-(7-((5-chloro-1-methyl-6-oxo-1,6-dihydropyridazin-4-yl)amino)-3,4-dihydroisoquinolin-2(1H)-yl)ethoxy)ethoxy)ethyl)-2-((2-(2,6-dioxopiperidin-3-yl)-1,3-dioxoisoindolin-4-yl)oxy)acetamide] | – | – | 0.018 | 1.46 | 1.6 | less stable ternary complexes | 0.121 ± 0.038 | less stable ternary complexes | – | – | – | – | –
7 | CN(C)CCCOc1ccc(-c2cc(NCCCn3cccn3)nc(S(C)(=O)=O)n2)cc1 [Compound 7, TP-238, reference compound] | – | – | – | 0.033 | – | – | 0.43 | – | – | – | – | – | –
